# Test results as given in ChEMBL document CHEMBL5528028, “Discovery of benzopyridone cyanoacetates as new type of potential broad-spectrum antibacterial candidates” (Eur J Med Chem, 2024).
# How the values were obtained:
# Assay type in all cases: functional
# Staphylococcus aureus [1] = assay: Antibacterial activity against methicillin-resistant Staphylococcus aureus assessed growth inhibition by micro broth dilution method
# Staphylococcus aureus [2] = assay: Antibacterial activity against Staphylococcus aureus assessed growth inhibition by micro broth dilution method
# Staphylococcus aureus [3] = assay: Antibacterial activity against Staphylococcus aureus ATCC 25923 assessed growth inhibition by micro broth dilution method
# Staphylococcus aureus [4] = assay: Antibacterial activity against Staphylococcus aureus ATCC 29213 assessed growth inhibition by micro broth dilution method
# Enterococcus faecalis = assay: Antibacterial activity against Enterococcus faecalis assessed growth inhibition by micro broth dilution method
# Klebsiella pneumoniae = assay: Antibacterial activity against Klebsiella pneumonia assessed growth inhibition by micro broth dilution method
# Escherichia coli [5] = assay: Antibacterial activity against Escherichia coli assessed growth inhibition by micro broth dilution method
# Escherichia coli [6] = assay: Antibacterial activity against Escherichia coli ATCC 25922 assessed growth inhibition by micro broth dilution method
# Pseudomonas aeruginosa [7] = assay: Antibacterial activity against Pseudomonas aeruginosa assessed growth inhibition by micro broth dilution method
# Pseudomonas aeruginosa [8] = assay: Antibacterial activity against Pseudomonas aeruginosa ATCC 27853 assessed growth inhibition by micro broth dilution method
# Acinetobacter baumannii = assay: Antibacterial activity against Acinetobacter baumannii assessed growth inhibition by micro broth dilution method
SMILES,MIC (Staphylococcus aureus [1]),MIC (Staphylococcus aureus [2]),MIC (Staphylococcus aureus [3]),MIC (Staphylococcus aureus [4]),MIC (Enterococcus faecalis),MIC (Klebsiella pneumoniae),MIC (Escherichia coli [5]),MIC (Escherichia coli [6]),MIC (Pseudomonas aeruginosa [7]),MIC (Pseudomonas aeruginosa [8]),MIC (Acinetobacter baumannii)
C#CCn1cc(C(=O)OCC)c(=O)c2cc(F)c([C-](C#N)C(=O)OCC)cc21.[Na+] (configuration not stated),64 µg/mL,64 µg/mL,2 µg/mL,16 µg/mL,32 µg/mL,16 µg/mL,16 µg/mL,8 µg/mL,32 µg/mL,8 µg/mL,16 µg/mL
CCCCCCCCCCCCn1cc(C(=O)OCC)c(=O)c2cc(F)c([C-](C#N)C(=O)OCC)cc21.[Na+] (configuration not stated),8 µg/mL,32 µg/mL,1 µg/mL,1 µg/mL,8 µg/mL,1 µg/mL,1 µg/mL,0.5 µg/mL,4 µg/mL,0.25 µg/mL,0.25 µg/mL
CCOC(=O)c1cn(C2CC2)c2cc([C-](C#N)C(=O)OCC)c(F)cc2c1=O.[Na+] (configuration not stated),16 µg/mL,32 µg/mL,8 µg/mL,32 µg/mL,16 µg/mL,16 µg/mL,16 µg/mL,32 µg/mL,32 µg/mL,16 µg/mL,32 µg/mL
CCCCn1cc(C(=O)OCC)c(=O)c2cc(F)c([C-](C#N)C(=O)OCC)cc21.[Na+] (configuration not stated),32 µg/mL,64 µg/mL,2 µg/mL,8 µg/mL,16 µg/mL,16 µg/mL,8 µg/mL,16 µg/mL,8 µg/mL,8 µg/mL,16 µg/mL
CCOC(=O)c1cn(CCN2CCOCC2)c2cc([C-](C#N)C(=O)OCC)c(F)cc2c1=O.[Na+] (configuration not stated),256 µg/mL,256 µg/mL,256 µg/mL,256 µg/mL,256 µg/mL,256 µg/mL,256 µg/mL,256 µg/mL,256 µg/mL,256 µg/mL,256 µg/mL
CCOC(=O)c1cn(Cc2ccc(F)cc2F)c2cc(F)c(F)cc2c1=O,256 µg/mL,256 µg/mL,256 µg/mL,256 µg/mL,256 µg/mL,0.25 µg/mL,16 µg/mL,128 µg/mL,64 µg/mL,256 µg/mL,16 µg/mL
CCCCCn1cc(C(=O)OCC)c(=O)c2cc(F)c(F)cc21,256 µg/mL,32 µg/mL,256 µg/mL,64 µg/mL,64 µg/mL,64 µg/mL,16 µg/mL,64 µg/mL,64 µg/mL,256 µg/mL,64 µg/mL
CCCCCCn1cc(C(=O)OCC)c(=O)c2cc(F)c([C-](C#N)C(=O)OCC)cc21.[Na+] (configuration not stated),32 µg/mL,16 µg/mL,0.5 µg/mL,1 µg/mL,16 µg/mL,1 µg/mL,0.5 µg/mL,1 µg/mL,0.5 µg/mL,1 µg/mL,0.5 µg/mL
CCOC(=O)c1cn(CC(N)=O)c2cc([C-](C#N)C(=O)OCC)c(F)cc2c1=O.[Na+] (configuration not stated),256 µg/mL,256 µg/mL,256 µg/mL,256 µg/mL,256 µg/mL,256 µg/mL,256 µg/mL,256 µg/mL,256 µg/mL,256 µg/mL,256 µg/mL
CCOC(=O)c1cn(CC(=O)N2CCN(C(=O)OC(C)(C)C)CC2)c2cc([C-](C#N)C(=O)OCC)c(F)cc2c1=O.[Na+] (configuration not stated),32 µg/mL,256 µg/mL,16 µg/mL,32 µg/mL,64 µg/mL,128 µg/mL,16 µg/mL,16 µg/mL,64 µg/mL,4 µg/mL,32 µg/mL
CCOC(=O)c1cn(CC2CC2)c2cc(F)c(F)cc2c1=O,256 µg/mL,128 µg/mL,128 µg/mL,128 µg/mL,128 µg/mL,128 µg/mL,16 µg/mL,64 µg/mL,32 µg/mL,256 µg/mL,256 µg/mL
CCOC(=O)c1cn(Cc2ccccn2)c2cc(F)c(F)cc2c1=O,256 µg/mL,64 µg/mL,64 µg/mL,128 µg/mL,128 µg/mL,128 µg/mL,2 µg/mL,64 µg/mL,128 µg/mL,64 µg/mL,16 µg/mL
CCOC(=O)c1cn(CC)c2cc(F)c(F)cc2c1=O,256 µg/mL,32 µg/mL,256 µg/mL,128 µg/mL,128 µg/mL,64 µg/mL,16 µg/mL,64 µg/mL,64 µg/mL,256 µg/mL,256 µg/mL
CCOC(=O)c1cn(Cc2ccc(Cl)c(Cl)c2)c2cc(F)c(F)cc2c1=O,256 µg/mL,16 µg/mL,256 µg/mL,256 µg/mL,128 µg/mL,0.5 µg/mL,8 µg/mL,2 µg/mL,32 µg/mL,64 µg/mL,256 µg/mL
CCCCCCCCn1cc(C(=O)O)c(=O)c2cc(F)c(C(C#N)C(=O)OCC)cc21 (configuration not stated),8 µg/mL,4 µg/mL,1 µg/mL,4 µg/mL,16 µg/mL,0.25 µg/mL,32 µg/mL,0.5 µg/mL,4 µg/mL,1 µg/mL,1 µg/mL
CCOC(=O)c1cn(Cc2ccccn2)c2cc([C-](C#N)C(=O)OCC)c(F)cc2c1=O.[Na+] (configuration not stated),256 µg/mL,256 µg/mL,256 µg/mL,256 µg/mL,256 µg/mL,256 µg/mL,256 µg/mL,128 µg/mL,128 µg/mL,128 µg/mL,256 µg/mL
CCOC(=O)c1cn(Cc2ccc(Cl)cc2Cl)c2cc(F)c(F)cc2c1=O,256 µg/mL,128 µg/mL,256 µg/mL,256 µg/mL,256 µg/mL,0.5 µg/mL,16 µg/mL,32 µg/mL,128 µg/mL,256 µg/mL,256 µg/mL
CCOC(=O)c1cn(C2CC2)c2cc(C(C#N)C(=O)OCC)c(F)cc2c1=O (configuration not stated),128 µg/mL,16 µg/mL,8 µg/mL,32 µg/mL,32 µg/mL,8 µg/mL,32 µg/mL,32 µg/mL,8 µg/mL,64 µg/mL,32 µg/mL
CCOC(=O)C(C#N)c1cc2c(cc1F)c(=O)c(C(=O)O)cn2CC (configuration not stated),4 µg/mL,4 µg/mL,4 µg/mL,16 µg/mL,64 µg/mL,1 µg/mL,32 µg/mL,0.5 µg/mL,8 µg/mL,4 µg/mL,8 µg/mL
CCOC(=O)c1cn(CC(=O)N2CCCCC2)c2cc([C-](C#N)C(=O)OCC)c(F)cc2c1=O.[Na+] (configuration not stated),32 µg/mL,256 µg/mL,64 µg/mL,8 µg/mL,64 µg/mL,256 µg/mL,32 µg/mL,64 µg/mL,128 µg/mL,16 µg/mL,16 µg/mL
CCOC(=O)c1cn(Cc2ccccc2Cl)c2cc([C-](C#N)C(=O)OCC)c(F)cc2c1=O.[Na+] (configuration not stated),64 µg/mL,256 µg/mL,0.5 µg/mL,2 µg/mL,1 µg/mL,4 µg/mL,0.25 µg/mL,2 µg/mL,16 µg/mL,2 µg/mL,32 µg/mL
C=CCn1cc(C(=O)OCC)c(=O)c2cc(F)c([C-](C#N)C(=O)OCC)cc21.[Na+] (configuration not stated),128 µg/mL,128 µg/mL,2 µg/mL,32 µg/mL,64 µg/mL,32 µg/mL,32 µg/mL,16 µg/mL,16 µg/mL,16 µg/mL,16 µg/mL
CCOC(=O)c1cn(Cc2ccccc2)c2cc([C-](C#N)C(=O)OCC)c(F)cc2c1=O.[Na+] (configuration not stated),256 µg/mL,64 µg/mL,0.5 µg/mL,4 µg/mL,64 µg/mL,4 µg/mL,4 µg/mL,2 µg/mL,32 µg/mL,4 µg/mL,8 µg/mL
CCOC(=O)c1cn(CC)c2cc([C-](C#N)C(=O)OCC)c(F)cc2c1=O.[Na+] (configuration not stated),64 µg/mL,256 µg/mL,2 µg/mL,64 µg/mL,64 µg/mL,32 µg/mL,64 µg/mL,32 µg/mL,32 µg/mL,32 µg/mL,32 µg/mL
CCOC(=O)c1cn(Cc2cnc(Cl)s2)c2cc(F)c(F)cc2c1=O,32 µg/mL,256 µg/mL,4 µg/mL,32 µg/mL,32 µg/mL,64 µg/mL,8 µg/mL,32 µg/mL,64 µg/mL,16 µg/mL,32 µg/mL
CCOC(=O)C(C#N)c1c(F)cc2c(=O)c(C(=O)O)cn(CC)c2c1F (configuration not stated),16 µg/mL,16 µg/mL,32 µg/mL,32 µg/mL,128 µg/mL,4 µg/mL,64 µg/mL,2 µg/mL,64 µg/mL,4 µg/mL,0.5 µg/mL
CCOC(=O)c1cn(CC)c2c(F)c(F)c(F)cc2c1=O,128 µg/mL,32 µg/mL,64 µg/mL,128 µg/mL,128 µg/mL,32 µg/mL,8 µg/mL,64 µg/mL,32 µg/mL,256 µg/mL,32 µg/mL
